Columns and labels:
[1] = test system: HIV; experiment: Example 8 pilot study: clinical condition and Karnofsky performance scale in HIV infected patients; format: in vivo, human
Description: (§1) A pilot study was conducted to evaluate the efficacy of transdermal DMF in the treatment of patients infected with HIV. Informed consent was obtained from each patient. Seropositive status was verified by Western blot using a commercial kit for detecting antibodies to p24 (Abbott Diagnostics) and the presence of HIV-1 was documented by quantitative PCR using a commercial kit (Roche Amplicor).
(§2) Dermal patches 9 cm in diameter were used within 12 hours of manufacture. […] The patches were visually inspected to verify the absence of leakage and were weighed on an analytical balance to verify less than 10% deviation from a total mass of 8.153 g. The patches were applied to the skin of the forearm and secured with Elastoplast™ bandages. Either one or two patches were used for the initial dose, as determined from the predicted skin transfer rate of 9.4 mg/cm^2 /hr and the patient's body weight.
(§3) A staged dose of DMF was used, with two-hourly blood and urine sampling to determine peak plasma DMF levels. […] Initial evaluation included daily determination of:
b) clinical checklist and Karnofsky score;
(See Karnofsky et al., […], Cancer 1:634-656). […] Additional anti-microbial therapy for secondary infections was rarely needed. […] Clinical improvement correlated well with disease status as assessed by viral load and CD4+ T cell count.

[2] = test system: human cancer xenografts; details: intraperitoneal injection, nude mice; cited from earlier work
[3] = water, alcohols and some hydrocarbons; cited from earlier work
[4] = Example 8 pilot study: body weight; format: in vivo, human
Description: as §1, §2, §3
a) vital signs and body weight;

[5] = test system: CD4 T-cell; experiment: Example 7: CD4 T-cell counts in blood of HIV-1 patients; format: in vivo, human; details: certain patients; increase from 350; transdermal DMF
Description: (§4) Each patch was applied for a period of 12 hours, either once per week over a period of 12 weeks, or twice per week over a period of 6 weeks.
(§5) Blood tests in certain patients indicated an increase in CD4 T-cell counts from 350 to 1000, and a rapid reduction of PCR (Polymerase chain reaction) (viral load) of 120,000 to 500/ml within three weeks with as little as three treatments. […] The PCR test conducted was the Roche amplicor HIV monitor. A viral load of <500/ml plasma is considered to be undetectable.
(§6) A daily virological serology workout to establish total body virus count and to monitor improvements in the immune status of the patient (CD4+ T-helper cells) and prognostic factors were also conducted. The serology workout was based on p24 antigen and quantitative PCR or, optionally, by other methods. A weekly determination of CD4 counts and […] was also conducted specifically to monitor improvements in the patient's immune status and prognosis. All clinical and laboratory data were fed into a centralized data system to facilitate rapid response to any detrimental change so as to curtail treatment to maximize clinical effect and minimize potential side effects.

[6] = Physicochemical properties of DMF; details: gel patches
[7] = test system: transformed cells; details: in vitro, certain transformed cells; cited from earlier work
[8] = test system: HIV-1; experiment: Example 8 pilot study: HIV-1 load by quantitative PCR (Roche Amplicor); format: in vivo, human
Description: as §1, §2, §3
d) Quantitative estimates of HIV-1 load by PCR (Roche Amplicor) and analysis of antibody to p24 (Abbott);

[9] = test system: HIV; details: certain cultured cell lines; cited from earlier work
[10] = test system: virus particles, e.g. the capsid; reverse transcriptase; protease; experiment: In vitro tests of DMF on virus particles
[11] = test system: malignant cells; details: cells treated in vitro, then inoculated into nude mice; cited from earlier work
[12] = test system: Human Herpes Virus 6 (HHV-6); details: certain cultured cell lines; cited from earlier work
[13] = test system: CD4+ T cell; experiment: Example 8 pilot study: CD4+ T cell count (Coulter analysis); format: in vivo, human
Description: as §1, §2, §3
c) Coulter analysis of CD4+ and CD8+ counts and CD4/CD8 ratio;

[14] = test system: HIV-1; experiment: Example 7: HIV-1 viral load by quantitative PCR (Roche amplicor HIV monitor); format: in vivo, human; details: certain patients; reduction from 120,000; within three weeks, as little as three treatments
Description: as §4, §5, §6

[15] = Example 7: plasma/blood DMF level in HIV-1 patients treated with DMF dermal patches; format: in vivo; details: human, blood, topical or ocular, 14000 mg
Description: Two skin patches were applied to different parts of the patient's body, for example to the forearm. […] The gel served to prevent leakage of liquid DMF from the patches. […] For a patient weighing about 60 kg, an amount of about 14 g over a period of 12 hours is required to produce a level of 100 ppm. Based on studies by Marz and Nohova the surface area required to absorb this amount in about 127,2 cm^2. […] Absorption capability varies from patient to patient depending on factors such as skin-type and skin thickness.
as §4
Daily full clinical and psychological evaluations were also conducted.

In the case of `CN(C)C=O` [DMF, N,N'-dimethylformamide], the “need for additional anti-microbial therapy for secondary infections” value ([1]; 8 patients) is reported as “rarely needed”, the “neurological symptoms and Herpes viral infections” value ([1]; 8 patients) is reported as “Improvement in neurological symptoms and Herpes viral infections was remarkable” and the “general condition, Karnofsky performance scale” value ([1]; 8 patients, before and after treatment (FIG. 4)) is reported as “every patient showed improved general condition”. The clinical outcome ([1]; Patient 1, after 7 weeks) was “appetite had improved, the respiratory difficulties had resolved, the patient appeared clinically well and started exercising again”, the clinical outcome ([1]; Patient 2, after 9 weeks) was “herpetic sores had resolved, the limb pains had disappeared and the patient appeared clinically well” and the clinical outcome ([1]; Patient 3, after 10 weeks) was “the patient was clinically well and no longer complained of pain in the limbs”. The clinical outcome ([1]; Patient 4, after 18 weeks) was “The patient appeared clinically well and had no active medical complaints”, the clinical outcome ([1]; Patient 5, after 19 weeks) was “The secondary infections had resolved and the patient appeared clinically well” and the clinical outcome ([1]; Patient 6, after 5 weeks) was “The patient was clinically well”. The clinical outcome ([1]; Patient 7, after 9 treatments) was “The patient felt well and had returned to full-time employment”, the clinical outcome ([1]; Patient 8, after 8 weeks) was “the Herpes lesions had entirely resolved” and the clinical improvement ([1]; after 2-3 weeks of treatment) was “Virtually all patients showed clinical improvement”. For the same molecule, the “general fatigue and appetite” value ([1]; within the first 14 days of DMF treatment) was “marked improvement in general fatigue and in appetite”, the “growth of human cancer xenografts” value [2] was “slow the growth of certain human cancer xenografts” and the miscibility [3] was “freely miscible with water, alcohols and some hydrocarbons”. For the same molecule, the body weight ([4]; Patient 1, after 7 weeks, from 74.2) was 100 kg, the body weight ([4]; Patient 2, after 9 weeks, from 58.4) was 63.0 kg and the body weight ([4]; Patient 3, after 10 weeks, from 81.9) was 96.0 kg. The body weight ([4]; Patient 4, after 18 weeks, from 81.5) was 90.4 kg, the body weight ([4]; Patient 5, after 19 weeks, from 75.4) was 84.6 kg and the body weight ([4]; Patient 6, after 5 weeks, from 56.0) was 58.0 kg. For the same molecule, the body weight ([4]; Patient 7, after 9 treatments, from 46.5) was 49.0 kg, the body weight ([4]; Patient 8, after 8 weeks, from 48.1) was 52.2 kg and the weight gain ([4]; all patients) was “All the patients gained weight”. For the same molecule, the “CD4 T-cell count” value [5] was 1000, the evaporation [6] was “evaporates rapidly” and the differentiation [7] was “in vitro differentiating agent”. For the same molecule, the PCR-measured viral load ([8]; Patient 1, after 7 weeks, from 222,000) was 160,000 copies/ml, the PCR-measured viral load ([8]; Patient 2, after 9 weeks, from 29,000) was 13,000 copies/ml and the PCR-measured viral load ([8]; Patient 3, after 9 weeks, from 250,000) was 50,000 copies/ml. For the same molecule, the PCR-measured viral load ([8]; Patient 4, after 18 weeks, from 13,000) was 4,000 copies/ml, the PCR-measured viral load ([8]; Patient 5, after 19 weeks, from 120,000) was 24,000 copies/ml and the PCR-measured viral load ([8]; Patient 6, after 5 weeks, from 156,000) was 13,000 copies/ml. The PCR-measured viral load ([8]; Patient 7, after 9 treatments, initial 1,156,000) was 9,000 copies/ml, the PCR-measured viral load ([8]; Patient 8, after 8 weeks, from 1,200,000) was 250,000 copies/ml and the “decline in PCR-measured viral load” value ([8]; after 42 days, Gompertz curve fit, five out of eight patients) was 88.8%. For the same molecule, the “in vitro replication of HIV” value [9] was “inhibit in vitro replication of HIV”, the “effect on virus particles” value ([10]; in vitro) was “it appears that the solvent properties of DMF dissolve the virus particles, e.g. the capsid” and the “apparent mode of action” value ([10]; it appears as if) was “acts as at least one of a reverse transcriptase inhibitor and a protease inhibitor”. The tumorigenicity [11] was “reduce their tumorigenicity”, the “in vitro replication of HHV-6” value [12] was “inhibit in vitro replication of HIV and Human Herpes Virus 6 (HHV-6)” and the “CD4+ T cell count” value ([13]; Patient 1, after 7 weeks, from 39) was 138 cells/μl. The “CD4+ T cell count” value ([13]; Patient 2, after 9 weeks, from 460) was 720 cells/μl, the “CD4+ T cell count” value ([13]; Patient 3, after 9 weeks, from 140) was 640 cells/μl and the “CD4+ T cell count” value ([13]; Patient 4, after 18 weeks, from 249) was 450 cells/μl. The “CD4+ cell count” value ([13]; Patient 5, after 19 weeks, from 260) was 450 cells/μl, the “CD4+ T cell count” value ([13]; Patient 6, after 5 weeks, from 354) was 396 cells/μl and the “CD4+ T cell count” value ([13]; Patient 7, after 9 treatments, initial 29) was 35 cells/μl. For the same molecule, the “CD4+ T cell count” value ([13]; Patient 7, after the first treatment, initial 29) was 14 cells/μl, the “CD4+ T cell count” value ([13]; Patient 8, after 8 weeks, from 200) was 240 cells/μl and the “increase in CD4+ T cell counts” value ([13]; after 42 days, Gompertz curve fit, seven out of eight patients) was 73.4%. It also gave a PCR viral load [14] of 500 mL⁻¹ and a concentration at 12 h [15] of 100 µg/mL.

Source: patent US5935597A, “Drug delivery devices and methods for treatment of viral and microbial infections and wasting syndromes” (Cryopreservation Technologies CC, priority 1995, dated 1999)
